US7090971B2, “Transglutaminase has intrinsic kinase activity” (priority 2004, dated 2006)
“Also recorded” adds a separate entry of the source.

How the values were obtained:
[1] = system: T47D cell monolayers; test: Phosphorylation of IGFBP-3 by T47D cell monolayers; format: cell-based, human
Description: (§1) Polystyrene tube were coated with streptavidin and blocked with bovine serum albumin, washed in saline and stored at −20° C. until used. Biotinylated IGFBP-3 (500 ng) was added in streptavidin-coated tubes for 2 h on ice. At the end of incubation, excess, unbound IGFBP-3 was removed. Tubes were placed on ice and phosphorylation reaction mixture containing 20 mM Tris buffered saline pH 7.5, 10 mM Mg/ATP, 60 μCi/ml ^32P-ATP was added. Reaction was initiated by the addition of membrane fraction and allowed to proceed for 30 min at 30° C. Reaction was stopped by addition of SDS-PAGE sample buffer, boiled for 7–10 min and analyzed on 11% gel. Subsequently gels were dried and processed for autoradiography. In some cases 2 μU of pure TG2 (Sigma-Aldrich, MO) or histidine-tagged full length human TG2 expressed using baculovirus expression system in insect cells and purified by Ni(II)-nitroacetate agarose chromatography was used to phosphorylate IGFBP-3 in presence or absence of TG2 specific inhibitors. In experiments where cell monolayers were used to phosphorylate IGFBP-3, cells were grown in 24-well culture plate to near confluence and washed with PBS to remove residual media and serum. Phosphorylation was then performed in 100 pI reaction mixture as above, containing 1 μg IGFBP-3 for 10 min at 37° C. At the end of incubation, reaction mixture was aspirated, reaction was stopped by addition of sample buffer and analyzed on 11% gel. In some experiments, cell monolayer were treated with TG2 inhibitor for 30 min prior to the phosphorylation reaction.
We assessed the effect of the TG2 and ROCK2 inhibitors on phosphorylation of IGFBP-3 by cell monolayers. We have previously shown that intact washed cells were able to phosphorylate IGFBP-3 immobilized on polystyrene tubes (Mishra and Murphy, 2003). T47D cell monolayers were incubated for 30 minutes in the presence of various concentrations of cystamine, an inhibitor of TG2. […] After termination of the incubation, the IGFBP-3 was analyzed by SDS-PAGE and autoradiography (FIG. 2A). […]

[2] = target: T1, TG2 (Homo sapiens, UniProt P21980); test: IGFBP-3 kinase activity of anti-TG2 immunoprecipitates from solubilized membranes; format: biochemical; parameters: endogenous in cells; host or cells: T47D or MCF-7 cell membranes (anti-TG2 immunoprecipitate on protein A-agarose); conditions: cystamine 20 μM, ROCK2 inhibitor 5 μM (FIG. 3C)
T1 sequence (P21980 1-687): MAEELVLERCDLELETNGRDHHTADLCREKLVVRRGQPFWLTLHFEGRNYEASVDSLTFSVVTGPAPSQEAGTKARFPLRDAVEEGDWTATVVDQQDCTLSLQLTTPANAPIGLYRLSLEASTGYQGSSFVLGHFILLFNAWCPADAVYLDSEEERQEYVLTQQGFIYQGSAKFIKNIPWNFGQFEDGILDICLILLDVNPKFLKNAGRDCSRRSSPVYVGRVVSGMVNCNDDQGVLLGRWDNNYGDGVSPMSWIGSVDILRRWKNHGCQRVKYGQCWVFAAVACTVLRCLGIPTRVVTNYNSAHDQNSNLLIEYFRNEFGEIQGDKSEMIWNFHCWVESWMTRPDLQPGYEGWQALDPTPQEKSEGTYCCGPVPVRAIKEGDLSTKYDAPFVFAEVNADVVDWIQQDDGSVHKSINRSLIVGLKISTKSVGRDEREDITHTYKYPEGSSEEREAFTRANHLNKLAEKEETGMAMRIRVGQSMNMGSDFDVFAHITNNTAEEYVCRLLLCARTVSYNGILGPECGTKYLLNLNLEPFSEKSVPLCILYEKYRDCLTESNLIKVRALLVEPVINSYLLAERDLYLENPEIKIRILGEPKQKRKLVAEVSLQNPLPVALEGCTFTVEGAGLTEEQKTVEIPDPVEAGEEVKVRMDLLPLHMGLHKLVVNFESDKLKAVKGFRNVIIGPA
Description: To 200 μl of solubilized membranes from T47D of MCF-7 cells, 10 μl of anti-TG2 goat polyclonal antiserum (Upstate Biotechnology, Lake Placid, N.Y.) and incubated for 1 h at 4° C. 20 μl of protein A-agarose (Pierce) was added and further incubated on a rotating device overnight at 4° C. At the end of incubation the pellet was washed four times in ice cold PBS. The supernatant was discarded and the pellet was resuspended in 50 μl of kinase buffer. 10 μl of the resuspended sample was used for phosphorylation of 500 ng of IGFBP-3. The samples were analyzed by SDS-PAGE, autoradiography and immunoblotting with TG2 antiserum.
We next examined the effect of TG2 and ROCK2 antisera on IGFBP-3 kinase activity present in cell membrane preparations. Antiserum against TG2 but not ROCK2 antiserum was able to immunodeplete IGFBP-3 kinase activity from membrane preparations (FIG. 3A). When the immunoprecipitates were analyzed for kinase activity, the precipitates obtained with TG2 antiserum but not those obtained with ROCK2 antiserum had kinase activity. Furthermore, the IGFBP-3 kinase activity present in the immunoprecipitates was inhibited by cystamine but not by the ROCK2 inhibitor.

[3] = system: T47D cell membranes; test: Phosphorylation of IGFBP-3 by T47D cell membranes; format: biochemical, human; conditions: cystamine 20 μM (10 and 20 μM in FIG. 2C), MDC 200 μM, ROCK2 inhibitor 2 and 5 μM (FIG. 2B, 2C)
Description: as §1
We assessed the effect of the TG2 and ROCK2 inhibitors on phosphorylation of IGFBP-3 by cell monolayers. We have previously shown that intact washed cells were able to phosphorylate IGFBP-3 immobilized on polystyrene tubes (Mishra and Murphy, 2003). T47D cell monolayers were incubated for 30 minutes in the presence of various concentrations of cystamine, an inhibitor of TG2. The washed cell monolayers were incubated with IGFBP-3 in the presence of ^32P-ATP for 10 minutes at 37° C. After termination of the incubation, the IGFBP-3 was analyzed by SDS-PAGE and autoradiography (FIG. 2A). […] Similar experiments were undertaken utilizing membrane preparations from both T47D and MCF-7 cells. As reported previously both T47D and MCF-7 cells were able to phosphorylate IGFBP-3. This process was inhibited by cystamine and MDC in both cells lines (FIG. 2B). DMSO the vehicle in which MDC was dissolved had no effect. Since TG2 has been found in association with ROCK2, a Rho-kinase (Singh et al., 2001, EMBO J., 20:2413–2423), and ROCK2 was present in the affinity purified cell membrane fractions, we investigated the effect of the ROCK2 inhibitor, R (+)trans-N-(4-pyridyl)-4-(1aminoethyl)-cyclohexanecarboxamide dihydrochloride. […]

[4] = target: T1, TG2; test: IGFBP-3 kinase activity of recombinant human TG2; format: biochemical; parameters: histidine-tagged full length human TG2 expressed using baculovirus expression system in insect cells; histidine tag; made in house; host or cells: insect cells (baculovirus expression system); conditions: for effect on phosphorylation of IGFBP-3 by human recombinant TG2: cystamine 20 μM, MDC 200 μM (FIG. 4A)
Description: as §1
Purified guinea pig liver TG2 and human recombinant TG2 both were able to phosphorylate IGFBP-3 (FIG. 4A). This process was inhibited cystamine and MDC. The related binding protein IGFBP-5 was also phosphorylated by TG2 whereas IGFBP-1 was not phosphorylated by TG2 (FIG. 4B). […] Fibronectin, another reported substrate for TG2 (Akimov and Belkin, 2001, J. Cell Sci., 114:2989–3000), was not phosphorylated by this enzyme under the conditions we used to phosphorylate IGFBP-3 (FIG. 4B). […]

[5] = system: MCF-7 cell membranes; test: Phosphorylation of IGFBP-3 by MCF-7 cell membranes; format: biochemical, human; conditions: cystamine 20 μM, MDC 200 μM (FIG. 2B)
Description: as §1, with “In experiments where cell monolayers were used to phosphorylate IGFBP-3, cells were grown in 24-well culture plate to near confluence and washed with PBS to remove residual media and serum. Phosphorylation was then performed in 100 pI reaction mixture as above, containing 1 μg IGFBP-3 for 10 min at 37° C.” left out, “In some experiments, cell monolayer were treated with TG2 inhibitor for 30 min prior to the phosphorylation reaction.” left out
We assessed the effect of the TG2 and ROCK2 inhibitors on phosphorylation of IGFBP-3 by cell monolayers. […] After termination of the incubation, the IGFBP-3 was analyzed by SDS-PAGE and autoradiography (FIG. 2A). […]

[6] = target: T2, guinea pig liver TG2 (UniProt P08587); test: IGFBP-3 kinase activity of purified guinea pig liver TG2; format: biochemical; conditions: cystamine 20 μM, MDC 200 μM (FIG. 4A)
T2 construct: Both TG2 purified from guinea pig liver and recombinant human TG2 expressed in insect cells were able to phosphorylate IGFBP-3; purchased Sigma-Aldrich, MO; host or cells: guinea pig liver (tissue-purified)
T2 sequence (P08587 1-690): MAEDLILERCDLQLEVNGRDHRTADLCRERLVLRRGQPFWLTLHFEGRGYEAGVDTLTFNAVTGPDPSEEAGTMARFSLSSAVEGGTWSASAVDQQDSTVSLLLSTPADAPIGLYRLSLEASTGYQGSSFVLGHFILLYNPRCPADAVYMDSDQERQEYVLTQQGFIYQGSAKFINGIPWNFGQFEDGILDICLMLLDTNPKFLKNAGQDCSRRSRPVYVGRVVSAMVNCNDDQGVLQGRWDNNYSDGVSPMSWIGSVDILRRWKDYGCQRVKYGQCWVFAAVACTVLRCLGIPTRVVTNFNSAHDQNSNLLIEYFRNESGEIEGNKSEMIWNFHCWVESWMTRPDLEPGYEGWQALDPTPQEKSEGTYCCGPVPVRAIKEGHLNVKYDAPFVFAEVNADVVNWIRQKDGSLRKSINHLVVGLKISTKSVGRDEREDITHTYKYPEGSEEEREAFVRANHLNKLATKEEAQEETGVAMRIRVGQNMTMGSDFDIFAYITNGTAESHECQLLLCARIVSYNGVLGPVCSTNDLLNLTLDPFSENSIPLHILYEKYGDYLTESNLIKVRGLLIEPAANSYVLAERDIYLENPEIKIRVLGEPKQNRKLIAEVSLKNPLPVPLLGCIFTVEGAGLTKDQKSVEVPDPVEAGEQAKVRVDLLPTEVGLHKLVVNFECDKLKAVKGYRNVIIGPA
Description: as §1, with “Phosphorylation was then performed in 100 pI reaction mixture as above, containing 1 μg IGFBP-3 for 10 min at 37° C.” left out, “In some experiments, cell monolayer were treated with TG2 inhibitor for 30 min prior to the phosphorylation reaction.” left out

[7] = target: T1, TG2; test: Cross-linking activity of recombinant TG2 (polymerization of IGFBP-3); format: biochemical; parameters: histidine-tagged full length human TG2 expressed using baculovirus expression system in insect cells; histidine tag; made in house; host or cells: insect cells (baculovirus expression system); conditions: recombinant TG2, increasing calcium concentration (FIG. 4C)
[8] = T47D cell monolayers pre-incubated 30 minutes with inhibitor, 32P-ATP, 10 minutes at 37° C., autoradiography (FIG. 2A)

Structure (SMILES) | effect on IGFBP-3 kinase activity of breast cancer cell monolayers ([1]; breast cancer cell monolayers (FIG. 2A)) | effect on IGFBP-3 kinase activity present in anti-TG2 immunoprecipitates [2] | effect on phosphorylation of IGFBP-3 by T47D cell membranes [3] | effect on phosphorylation of IGFBP-3 by human recombinant TG2 [4] | effect on phosphorylation of IGFBP-3 by MCF-7 cell membranes [5] | effect on phosphorylation of IGFBP-3 by purified guinea pig liver TG2 [6] | effect on phosphorylation of IGFBP-3 by T47D cell membranes ([3]; listed as monodansyl cadaverine) | effect of increasing calcium concentration on polymerization of IGFBP-3 (cross-linking activity of TG2) [7] | effect of increasing calcium concentration on kinase activity of TG2 ([4]; recombinant TG2, increasing calcium concentration (FIG. 4C)) | concentration at which complete inhibition of IGFBP-3 phosphorylation was apparent [1, 8] | concentration at which inhibition of IGFBP-3 phosphorylation was seen (as little as) [1, 8]
C[C@@H](N)[C@H]1CC[C@H](C(=O)Nc2ccncc2)CC1.Cl.Cl (relative stereo) [ROCK2 inhibitor, R (+)trans-N-(4-pyridyl)-4-(1aminoethyl)-cyclohexanecarboxamide dihydrochloride] | no effect | not | no effect |  |  |  |  |  |  |  | 
CN(C)c1cccc2c(S(=O)(=O)NCCCCCN)cccc12 [MDC, monodansyl cadaverine] |  |  | inhibited | inhibited | inhibited | inhibited | abolished |  |  |  | 
[Ca+2] [calcium] |  |  |  |  |  |  |  | increase in polymerization | decrease in the kinase activity; also recorded: inhibited in a concentration dependent fashion |  | 
NCCSSCCN [cystamine] |  | inhibited | inhibited; also recorded: abolished | inhibited | inhibited | inhibited |  |  |  | 50 µM | 20 µM
